Data on one substance can be found in publication PMC4490100 (Clinical cancer research : an official journal of the …, 2015).

Data set [1] relates to mononuclear cells from normal bone marrow. It counts as cell-based, human.
The test system of another data set is human leukemia cells. Nature of the data set: Leukemia cell morphology after overnight incubation. The class given is cell-based. Particulars: overnight incubation (Fig. 4C).
In a further data set the test system is OCI-AML3 cells. Nature of the data set: Cell death assay. It counts as cell-based, human. As to conditions: OCI-AML3, overnight at 37 °C, 40 μM or higher, AnnexinV-FITC/PI flow cytometry. Background: A flow cytometer gives signals particle by particle.

On to “CGRRAGGSC-GG-D(KLAKLAK)2 (disulfide) [BMTP-11]”, for which, in data set [1], the “effects on mononuclear cells from normal bone marrow” value is on record as “no detectable effects”. In addition, the “effect on leukemia cell morphology” value in the data set on human leukemia cells was “affected the morphology”. In the data set with OCI-AML3 cells, the “cell death (fraction of cells)” value is ~ 90%.
